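These data come from cells grown in 96-well plates and exposed to compound for 48 hours at five concentrations. GI50 = concentration required for 50% inhibition of growth.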 The source made the active and inactive calls. Rule as the data show it: active = GI50 up to about 1.1 µM and inactive = higher.
Assays:
Assay in all cases: NCI-60 cell line screen, 48 h
A549 = test system: A549
COLO 205 = test system: COLO 205
HCC 2998 = test system: HCC 2998
HCT-116 = test system: HCT-116
HOP-62 = test system: HOP-62
KM12 = test system: KM12
M14 = test system: M14
NCI-H23 = test system: NCI-H23
SF-268 = test system: SF-268
SF-295 = test system: SF-295
SK-MEL-28 = test system: SK-MEL-28
SK-OV-3 = test system: SK-OV-3
SN12C = test system: SN12C
SNB-19 = test system: SNB-19
SW-620 = test system: SW-620
TK-10 = test system: TK-10
UACC-257 = test system: UACC-257
UO-31 = test system: UO-31
MDA-MB-435 = test system: MDA-MB-435

Measured: GI50

COC(=O)C1C=CCON2CCc3c(n(S(=O)(=O)c4ccccc4)c4ccccc34)C12 (stereo unspecified)
inactive: A549 50.1 µM | COLO 205 33.5 µM | HCC 2998 51.5 µM | HCT-116 39.3 µM | HOP-62 > 39.2 µM | KM12 35.2 µM | M14 44.5 µM | NCI-H23 > 90.4 µM | SF-268 > 100 µM | SF-295 59.4 µM | SK-MEL-28 > 100 µM | SK-OV-3 > 61.9 µM | SN12C 60 µM | SNB-19 > 46.6 µM | SW-620 14.8 µM | TK-10 > 78.3 µM | UACC-257 50.1 µM | UO-31 42.9 µM

CC1CC(N)=Nc2ccccc2N1Cc1ccccc1 (stereo unspecified)
inactive: A549 17.4 µM | COLO 205 14.9 µM | HCT-116 29.3 µM | HOP-62 13 µM | KM12 15 µM | M14 15.6 µM | MDA-MB-435 13.9 µM | NCI-H23 16.3 µM | SF-268 13.6 µM | SF-295 14.5 µM | SK-MEL-28 11.6 µM | SK-OV-3 13.2 µM | SN12C 16.6 µM | SNB-19 15.9 µM | SW-620 12.6 µM | TK-10 15 µM | UACC-257 12.9 µM | UO-31 21.9 µM

C[N+](C)(C)CC(=O)N/N=C(/C(=O)Nc1ccc(Br)cc1)C1C(=O)NC(=O)NC1=O
inactive: A549 > 100 µM | COLO 205 > 100 µM | HCC 2998 > 100 µM | HCT-116 > 100 µM | HOP-62 > 100 µM | KM12 > 100 µM | M14 > 100 µM | NCI-H23 > 100 µM | SF-268 > 100 µM | SF-295 > 100 µM | SK-MEL-28 > 100 µM | SK-OV-3 > 100 µM | SN12C > 100 µM | SNB-19 > 100 µM | SW-620 > 100 µM | TK-10 > 100 µM | UACC-257 > 100 µM | UO-31 > 100 µM

Cc1ccc(S(=O)(=O)c2ccc(C)cc2[N+](=O)[O-])cc1
inactive: A549 > 100 µM | COLO 205 > 100 µM | HCC 2998 > 100 µM | HCT-116 71.4 µM | HOP-62 > 100 µM | KM12 > 100 µM | M14 > 100 µM | NCI-H23 53.7 µM | SF-268 > 100 µM | SF-295 79.4 µM | SK-MEL-28 > 100 µM | SK-OV-3 > 100 µM | SN12C > 100 µM | SNB-19 > 100 µM | SW-620 > 100 µM | TK-10 > 100 µM | UACC-257 28.8 µM | UO-31 > 100 µM

O=C(/C=C/c1ccc(Cl)c(Cl)c1)c1ccc2ccccc2c1
inactive: A549 > 100 µM | COLO 205 13.6 µM | HCC 2998 > 100 µM | HCT-116 > 100 µM | HOP-62 > 100 µM | KM12 > 100 µM | M14 > 100 µM | NCI-H23 > 100 µM | SF-268 > 100 µM | SF-295 > 100 µM | SK-MEL-28 > 100 µM | SK-OV-3 > 100 µM | SN12C 19.7 µM | SNB-19 > 100 µM | SW-620 > 100 µM | TK-10 > 100 µM | UACC-257 > 100 µM | UO-31 > 100 µM

CC[C@]1(O)C(=O)OCc2c1cc1n(c2=O)Cc2cc3c(N)cccc3nc2-1
inactive: A549 > 100 µM | COLO 205 > 100 µM | HCC 2998 > 100 µM | HCT-116 > 100 µM | HOP-62 > 100 µM | KM12 > 100 µM | M14 > 100 µM | NCI-H23 > 100 µM | SF-268 > 100 µM | SF-295 > 100 µM | SK-MEL-28 > 100 µM | SK-OV-3 > 100 µM | SN12C > 100 µM | SNB-19 > 100 µM | SW-620 > 100 µM | TK-10 > 100 µM | UACC-257 > 100 µM | UO-31 > 100 µM

Cc1ccc(-c2sc(-c3ccc(C)cc3)c3c2C2CCC3C2)cc1
inactive: A549 > 50 µM | COLO 205 > 50 µM | HCT-116 > 50 µM | HOP-62 > 50 µM | KM12 > 50 µM | M14 > 50 µM | MDA-MB-435 > 50 µM | NCI-H23 > 50 µM | SF-268 > 50 µM | SF-295 > 50 µM | SK-MEL-28 > 50 µM | SK-OV-3 > 50 µM | SN12C > 50 µM | SNB-19 > 50 µM | SW-620 > 50 µM | TK-10 > 50 µM | UACC-257 > 50 µM | UO-31 > 50 µM

CCOC(=O)c1ccc(/N=C/c2ccc(N(CCC#N)S(=O)(=O)c3ccccc3)cc2C)cc1
inactive: A549 47.1 µM | COLO 205 20.4 µM | HCC 2998 28.7 µM | HCT-116 36.9 µM | HOP-62 31 µM | KM12 18.7 µM | M14 25.4 µM | NCI-H23 > 100 µM | SF-268 26.1 µM | SF-295 26.5 µM | SK-MEL-28 61.2 µM | SK-OV-3 76.9 µM | SN12C 75.7 µM | SNB-19 > 100 µM | SW-620 76.6 µM | TK-10 49.3 µM | UACC-257 50 µM | UO-31 28.3 µM

O=C(O)CSCC(=O)O
inactive: A549 > 100 µM | HCT-116 > 100 µM | HOP-62 > 100 µM | KM12 > 100 µM | M14 > 100 µM | MDA-MB-435 > 100 µM | NCI-H23 > 100 µM | SF-268 > 100 µM | SF-295 > 100 µM | SK-MEL-28 > 100 µM | SN12C > 100 µM | SNB-19 > 100 µM | SW-620 > 100 µM | TK-10 > 100 µM | UACC-257 > 100 µM | UO-31 > 100 µM

C=C/C=C(\NC(=O)C(Cl)(Cl)Cl)[Si](C)(C)C
inactive: A549 > 100 µM | COLO 205 > 100 µM | HCC 2998 > 100 µM | HCT-116 > 100 µM | HOP-62 > 100 µM | KM12 > 100 µM | M14 > 100 µM | NCI-H23 > 100 µM | SF-268 > 100 µM | SF-295 > 100 µM | SK-MEL-28 > 100 µM | SK-OV-3 > 100 µM | SN12C > 100 µM | SNB-19 > 100 µM | SW-620 > 100 µM | TK-10 > 100 µM | UACC-257 > 100 µM | UO-31 > 100 µM

O=c1oc2ccccc2[n+]([O-])c1-c1ccccc1
inactive: A549 > 100 µM | COLO 205 > 100 µM | HCC 2998 > 100 µM | HCT-116 > 100 µM | HOP-62 > 100 µM | KM12 > 100 µM | M14 > 100 µM | NCI-H23 > 100 µM | SF-268 > 100 µM | SF-295 > 100 µM | SK-MEL-28 > 100 µM | SK-OV-3 > 100 µM | SN12C > 100 µM | SNB-19 > 100 µM | SW-620 > 100 µM | TK-10 > 100 µM | UACC-257 > 100 µM | UO-31 > 100 µM
